Data taken from patent US9650339B2, “Inhibitors of histone demethylases” (Gilead Sciences, Inc., priority 2013, dated 2017).

How the values were obtained:
Type in all cases: biochemical
KDM6B (JMJD3) = target: T1, KDM6B (JMJD3) (Homo sapiens, UniProt O15054); experiment: Histone lysine demethylase AlphaLISA assay, KDM6B; conditions: read-out: KDM6B HDME Inhibition IC50
T1 construct: 1043-end; purchased BPS; host or cells: Bac (baculovirus system)
Procedure, shortened: (§1)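 Enzyme 10 min pre-incubation; + compound (3% DMSO soln) 10 min; + biotin-H3 methyl-Lys peptide, 25 μM L-Asc, 10 μM α-KG, RT. Read: AlphaLISA acceptor beads, then streptavidin donor beads, RT, dark.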

KDM5B (PLU-1) = target: T2, KDM5B (PLU-1) (Homo sapiens, UniProt Q9UGL1); experiment: Histone lysine demethylase AlphaLISA assay, KDM5B; conditions: read-out: KDM5B HDME Inhibition IC50
T2 sequence (Q9UGL1 1-809): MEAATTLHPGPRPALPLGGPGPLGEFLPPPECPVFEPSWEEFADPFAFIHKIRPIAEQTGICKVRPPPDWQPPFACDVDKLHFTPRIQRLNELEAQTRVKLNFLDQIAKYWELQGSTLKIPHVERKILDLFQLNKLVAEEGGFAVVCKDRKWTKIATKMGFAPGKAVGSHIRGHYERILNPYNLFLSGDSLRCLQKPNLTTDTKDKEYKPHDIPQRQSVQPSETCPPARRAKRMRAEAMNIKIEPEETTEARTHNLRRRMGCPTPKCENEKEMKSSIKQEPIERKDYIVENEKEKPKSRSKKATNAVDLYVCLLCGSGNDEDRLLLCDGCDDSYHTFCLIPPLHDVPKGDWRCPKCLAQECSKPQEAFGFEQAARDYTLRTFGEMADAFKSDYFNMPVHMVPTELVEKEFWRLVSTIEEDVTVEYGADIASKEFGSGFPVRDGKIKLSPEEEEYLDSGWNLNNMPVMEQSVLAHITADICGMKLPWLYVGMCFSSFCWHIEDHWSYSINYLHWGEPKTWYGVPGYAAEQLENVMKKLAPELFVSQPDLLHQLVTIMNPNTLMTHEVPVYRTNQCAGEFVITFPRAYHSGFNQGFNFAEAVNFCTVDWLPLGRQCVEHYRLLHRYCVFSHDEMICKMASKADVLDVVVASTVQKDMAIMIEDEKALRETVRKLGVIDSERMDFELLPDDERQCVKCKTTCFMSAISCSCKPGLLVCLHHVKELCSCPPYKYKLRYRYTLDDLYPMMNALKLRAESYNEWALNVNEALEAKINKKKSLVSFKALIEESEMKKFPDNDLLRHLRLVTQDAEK
Procedure, shortened: as §1

KDM2B (FBXL10) = target: T3, KDM2B (FBXL10) (Homo sapiens, UniProt Q8NHM5); experiment: Histone lysine demethylase AlphaLISA assay, KDM2B; conditions: read-out: KDM2B HDME Inhibition IC50
T3 sequence (Q8NHM5 1-650): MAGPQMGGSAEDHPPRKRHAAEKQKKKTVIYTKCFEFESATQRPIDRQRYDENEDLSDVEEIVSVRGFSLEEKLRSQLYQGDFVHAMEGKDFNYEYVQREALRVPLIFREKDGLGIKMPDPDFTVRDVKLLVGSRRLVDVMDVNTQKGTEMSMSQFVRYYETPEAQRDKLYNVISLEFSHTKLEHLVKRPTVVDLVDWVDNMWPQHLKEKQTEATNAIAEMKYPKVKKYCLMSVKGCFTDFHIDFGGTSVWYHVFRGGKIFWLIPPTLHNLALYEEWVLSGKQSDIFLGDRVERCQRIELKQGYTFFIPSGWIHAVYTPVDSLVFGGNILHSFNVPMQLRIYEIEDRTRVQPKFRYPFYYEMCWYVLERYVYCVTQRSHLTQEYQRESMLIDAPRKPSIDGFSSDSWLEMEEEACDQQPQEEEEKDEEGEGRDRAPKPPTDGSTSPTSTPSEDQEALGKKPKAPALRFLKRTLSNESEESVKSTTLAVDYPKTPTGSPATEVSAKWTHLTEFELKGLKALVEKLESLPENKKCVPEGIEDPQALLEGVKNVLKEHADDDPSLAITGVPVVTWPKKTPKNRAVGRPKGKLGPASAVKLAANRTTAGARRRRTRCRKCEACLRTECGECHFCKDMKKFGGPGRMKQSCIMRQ
Procedure, shortened: as §1

KDM4B (JMJD2B) = target: T4, KDM4B (JMJD2B) (Homo sapiens, UniProt O94953); experiment: Histone lysine demethylase AlphaLISA assay, KDM4B; conditions: read-out: KDM4B HDME Inhibition IC50
T4 construct: 2-500; purchased BPS; host or cells: Bac (baculovirus system)
T4 sequence (O94953 2-500): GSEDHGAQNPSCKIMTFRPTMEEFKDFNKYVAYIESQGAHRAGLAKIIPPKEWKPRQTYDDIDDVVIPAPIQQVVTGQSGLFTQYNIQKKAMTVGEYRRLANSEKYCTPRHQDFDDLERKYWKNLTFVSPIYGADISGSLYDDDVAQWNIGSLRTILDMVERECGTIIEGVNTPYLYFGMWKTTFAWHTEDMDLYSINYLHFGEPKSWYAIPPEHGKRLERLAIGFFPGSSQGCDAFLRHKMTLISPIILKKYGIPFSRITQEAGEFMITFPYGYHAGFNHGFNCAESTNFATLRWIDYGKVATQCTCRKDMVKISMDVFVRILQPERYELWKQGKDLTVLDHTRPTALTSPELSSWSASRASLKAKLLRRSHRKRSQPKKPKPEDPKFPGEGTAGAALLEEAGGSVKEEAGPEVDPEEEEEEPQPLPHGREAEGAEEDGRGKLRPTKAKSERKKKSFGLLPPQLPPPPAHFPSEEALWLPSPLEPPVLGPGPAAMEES
Procedure, shortened: as §1

T1 sequence (O15054 1043-1682 isoform O15054-1 limits assumed): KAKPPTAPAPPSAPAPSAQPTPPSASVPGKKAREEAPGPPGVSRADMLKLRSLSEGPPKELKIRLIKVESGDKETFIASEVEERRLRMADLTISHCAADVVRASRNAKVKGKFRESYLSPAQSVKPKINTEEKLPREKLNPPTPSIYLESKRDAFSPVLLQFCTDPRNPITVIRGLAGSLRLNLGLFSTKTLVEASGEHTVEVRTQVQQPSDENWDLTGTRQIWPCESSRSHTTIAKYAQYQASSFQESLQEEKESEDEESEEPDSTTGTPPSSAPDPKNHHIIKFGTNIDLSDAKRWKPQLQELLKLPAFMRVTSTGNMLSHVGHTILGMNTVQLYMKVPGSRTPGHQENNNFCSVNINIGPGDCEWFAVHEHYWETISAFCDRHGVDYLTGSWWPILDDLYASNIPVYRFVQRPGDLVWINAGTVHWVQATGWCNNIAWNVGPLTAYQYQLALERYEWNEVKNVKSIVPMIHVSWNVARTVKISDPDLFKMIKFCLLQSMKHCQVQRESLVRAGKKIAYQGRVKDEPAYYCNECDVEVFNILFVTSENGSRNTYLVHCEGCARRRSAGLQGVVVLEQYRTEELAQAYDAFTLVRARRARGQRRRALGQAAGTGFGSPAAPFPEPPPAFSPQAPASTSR

Row | IC50 (KDM6B (JMJD3)) | IC50 (KDM5B (PLU-1)) | IC50 (KDM2B (FBXL10)) | IC50 (KDM4B (JMJD2B)) | Compound
1 | > 2500 nM | < 250 nM | > 2500 nM | 250 to 2500 nM | C(=N/C1CC1)/c1ccnc(CNCCCN2CCCC2)c1 [Compound 42, N-{[2-({[3-(pyrrolidin-1-yl)propyl]amino}-methyl)pyridin-4-yl]methylidene}-cyclopropanamine]
2 | > 2500 nM | < 250 nM | > 2500 nM | > 2500 nM | CN(C)CCCNCc1cc(/C=N/CCN(C)C)ccn1 [Compound 38, ({4-[{[2-(dimethylamino)ethyl]-imino}methyl]pyridin-2-yl}methyl)[3-(dimethylamino)-propyl]amine]
3 | > 2500 nM | < 250 nM | 250 to 2500 nM | < 250 nM | CN(CCCn1cccn1)C(=O)CNCc1cc(/C=N/C2CC2)ccn1 [Compound 52, 2-[({4-[N-cyclopropyl-carboximidoyl]-pyridin-2-yl}methyl)amino]-N-methyl-N-[3-(1H-pyrazol-1-yl)propyl]acetamide]
